Results: patent US20230143604A1, “QW DOSING OF GIP RECEPTOR AGONIST PEPTIDE COMPOUNDS AND USES THEREOF” (TAKEDA PHARMACEUTICAL COMPANY LIMITED, priority 2020, published 2023)

Assays:
C57BL/6J mice = test: Oral glucose tolerance test (OGTT); format: in vivo; conditions: 3 nmol/kg s.c., 24 hours before glucose loading
Experimental: An oral glucose tolerance test (OGTT) was carried out using C57BL/6J mice with a 50% dextrose solution dosed at 5 ml/kg. Testing concentrations of 0.1 nmol/kg, 0.3 nmmol/kg, 3 nmol/kg or 10 nmol/kg were selected depending on the peptide. Each peptide or a vehicle (control group) was subcutaneously administered 24 hours (unless shown otherwise) before glucose loading and the blood glucose was measured at 0, 15, 30, and 60 minutes after glucose dosing.
% inhibition=(1−(AUC cpd−AUC naïve/AUC veh−AUC naïve))×100.

[1] = Solubility in phosphate buffer pH 7.4
In short: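 3 mg of peptide treated with 100 μL portions of 200 mM phosphate buffer pH 7.4, sonicating/vortexing up to 1 min, with further buffer added until fully dissolved. Solubility then quantified by HPLC.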

[2] = pH 7.4, aqueous buffer, pH 7.4 Phosphate Buffer - Solubility, 200 mM Phosphate buffer pH 7.4
[3] = pH 7.4, solubility in phosphate buffer at pH 7.4, 200 mM phosphate buffer pH 7.4

SMILES	Oral Glucose Tolerance Test Percent decrease in blood glucose AUC (%) over 60 mins (C57BL/6J mice)	solubility [1, 2]	solubility [1, 3]
CC[C@H](C)[C@H](NC(=O)[C@H](Cc1ccccc1)NC(=O)[C@@H](NC(=O)CNC(=O)[C@H](CCC(=O)O)NC(=O)C(C)(C)NC(=O)[C@H](Cc1ccc(O)cc1)NC)[C@@H](C)O)C(=O)N[C@@H](CO)C(=O)N[C@@H](CC(=O)O)C(=O)N[C@@H](Cc1ccc(O)cc1)C(=O)N[C@@H](CO)C(=O)N[C@H](C(=O)NC(C)(C)C(=O)N[C@@H](CCCCNC(=O)CNC(=O)CNC(=O)CNC(=O)CNC(=O)CNC(=O)CCCCCCCCCCCCCCCCC(=O)O)C(=O)N[C@@H](CC(=O)O)C(=O)N[C@@H](CCCNC(=N)N)C(=O)NC(C)(C)C(=O)N[C@@H](C)C(=O)N[C@@H](CCC(N)=O)C(=O)NC(C)(C)C(=O)N[C@@H](CC(=O)O)C(=O)N[C@@H](Cc1ccccc1)C(=O)N[C@H](C(=O)N[C@@H](CC(N)=O)C(=O)N[C@@H](Cc1c[nH]c2ccccc12)C(=O)N[C@@H](CC(C)C)C(=O)N[C@@H](CC(C)C)C(=O)N[C@@H](C)C(=O)N[C@@H](CCC(N)=O)C(=O)N[C@@H](CO)C(=O)N1CCC[C@H]1C(=O)N[C@@H](CO)C(=O)N[C@@H](CO)C(=O)NCC(=O)N[C@@H](C)C(=O)N1CCC[C@H]1C(=O)N1CCC[C@H]1C(=O)N1CCC[C@H]1C(=O)N[C@@H](CO)C(=O)O)C(C)C)[C@@H](C)CC [Compound 47]	48% (3 nmol/kg)	≥ 30 mg/mL	≥ 15 mg/mL
CC[C@H](C)[C@H](NC(=O)[C@H](CO)NC(=O)[C@H](Cc1ccc(O)cc1)NC(=O)[C@H](CC(=O)O)NC(=O)[C@H](CO)NC(=O)[C@@H](NC(=O)[C@H](Cc1ccccc1)NC(=O)[C@@H](NC(=O)CNC(=O)[C@H](CCC(=O)O)NC(=O)C(C)(C)NC(=O)[C@H](Cc1ccc(O)cc1)NC)[C@@H](C)O)[C@@H](C)CC)C(=O)N[C@@H](C)C(=O)N[C@@H](CC(C)C)C(=O)N[C@@H](CC(=O)O)C(=O)N[C@@H](CCCNC(=N)N)C(=O)N[C@@H](CCCCNC(=O)CNC(=O)CNC(=O)CNC(=O)CNC(=O)CNC(=O)CCCCCCCCCCCCCCCCC(=O)O)C(=O)N[C@@H](C)C(=O)N[C@@H](CCC(N)=O)C(=O)NC(C)(C)C(=O)N[C@@H](CC(=O)O)C(=O)N[C@@H](Cc1ccccc1)C(=O)N[C@H](C(=O)N[C@@H](CC(N)=O)C(=O)N[C@@H](Cc1c[nH]c2ccccc12)C(=O)N[C@@H](CC(C)C)C(=O)N[C@@H](CC(C)C)C(=O)N[C@@H](C)C(=O)N[C@@H](CCC(N)=O)C(=O)N[C@@H](CCCNC(=N)N)C(=O)N1CCC[C@H]1C(=O)N[C@@H](CO)C(=O)N[C@@H](CO)C(=O)NCC(=O)N[C@@H](C)C(=O)N1CCC[C@H]1C(=O)N1CCC[C@H]1C(=O)N1CCC[C@H]1C(=O)N[C@@H](CO)C(=O)O)C(C)C [Compound 51]	50% (3 nmol/kg)	≥ 30 mg/mL	≥ 15 mg/mL
CC[C@H](C)[C@H](NC(=O)[C@H](Cc1ccccc1)NC(=O)[C@@H](NC(=O)CNC(=O)[C@H](CCC(=O)O)NC(=O)C(C)(C)NC(=O)[C@H](Cc1ccc(O)cc1)NC)[C@@H](C)O)C(=O)N[C@@H](CO)C(=O)N[C@@H](CC(=O)O)C(=O)N[C@@H](Cc1ccc(O)cc1)C(=O)N[C@@H](CO)C(=O)N[C@H](C(=O)NC(C)(C)C(=O)N[C@@H](CCCCNC(=O)CNC(=O)CNC(=O)CNC(=O)CNC(=O)CNC(=O)CCCCCCCCCCCCCCCCC(=O)O)C(=O)N[C@@H](CC(=O)O)C(=O)N[C@@H](CCCNC(=N)N)C(=O)NC(C)(C)C(=O)N[C@@H](C)C(=O)N[C@@H](CCC(N)=O)C(=O)NC(C)(C)C(=O)N[C@@H](CC(=O)O)C(=O)N[C@@H](Cc1ccccc1)C(=O)N[C@H](C(=O)N[C@@H](CC(N)=O)C(=O)N[C@@H](Cc1c[nH]c2ccccc12)C(=O)N[C@@H](CC(C)C)C(=O)N[C@@H](CC(C)C)C(=O)N[C@@H](C)C(=O)N[C@@H](CCC(N)=O)C(=O)N[C@@H](CCCNC(=N)N)C(=O)N1CCC[C@H]1C(=O)N[C@@H](CO)C(=O)N[C@@H](CO)C(=O)NCC(=O)N[C@@H](C)C(=O)N1CCC[C@H]1C(=O)N1CCC[C@H]1C(=O)N1CCC[C@H]1C(=O)N[C@@H](CO)C(=O)O)C(C)C)[C@@H](C)CC [Compound 54]	43% (3 nmol/kg)	≥ 30 mg/mL	≥ 15 mg/mL
